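Five concentrations, 48 hours, 96-well plates. GI50: concentration for 50% inhibition of growth. The concentration for full growth arrest is given as TGI.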
test system: MALME-3M melanoma; assay: growth of human tumour cells (NCI), 48 h

Structure (SMILES) | TGI [µM] | GI50 [µM]
COc1cccc(C2=NC(C(C)C)CO2)c1 (stereo unspecified) | > 100 | –
CCOC(=O)C(=[N+]=[N-])[Si](C)(C)C | > 100 | –
O=C(CC1(O)C(=O)N(Cc2ccccc2)c2ccc(F)cc21)c1ccc(C(=O)NCC2CCC3(CC2)OOC2(CCCCC2)OO3)cc1 (stereo unspecified) | 0.54 | 0.226
COc1cc2c3c(n(C)c(=O)c2cc1OC)-c1cc2c(cc1/C3=C\CN)OCO2 | > 40.4 | 2.17
COc1ccc(/C=C2/N=C(c3ccccc3)N(c3c(C)n(C)n(-c4ccccc4)c3=O)C2=O)cc1OC | > 100 | > 100
CCCc1nc(NC#N)nc(C(=O)Nc2ccccc2)c1CC | > 100 | –
O=C(CCc1n[nH]c(=S)o1)Nc1ccccc1C(F)(F)F | > 100 | –
CCn1c2ccccc2c2cc(NC(=O)Nc3ccc([N+](=O)[O-])cc3C)ccc21 | 13 | 2.28
Cc1ccc(NC(=O)CCc2cc(C(C)(C)C)nc(=S)[nH]2)cc1C | > 100 | –
Cc1[nH]c2ccccc2c1C(=O)/C=C/c1ccccc1O | > 100 | –
O=C(Nc1nc(=S)c2c(ncn2CCOC(=O)c2ccccc2)[nH]1)c1ccccc1 | > 100 | –
O=C(CSc1nc2ccccc2nc1-c1ccccc1)Nc1ccc(F)cc1 | 54 | 17.1
COc1ccc2c(c1)C(=O)c1c-2c(N2CCN(C(=O)CNCCNCCO)CC2)nc2ccccc12 | 5.97 | 2.55
Cc1ccc(/C=C/C(=O)c2sc(-c3nc(C)c(C(=O)/C=C/c4ccc(C)cc4)s3)nc2C)cc1 | > 100 | –
Cn1cc(-c2csc(-c3c[nH]c4ccc(F)cc34)n2)c2cnccc21 | 3.46 | 1.94
O=C1Nc2ccccc2/C1=N\[O-].O=C1Nc2ccccc2/C1=N\[O-].[Cu+2] | > 100 | > 100
CCC[CH2][Sn]([Cl])([CH2]CCC)[CH2]CCC | 0.265 | 0.123
O=c1ccn([C@H]2CSC[C@@H](CO)C2)c(=O)[nH]1 | > 100 | –
COc1cc(-n2cc(-c3ccc(F)cc3)[nH]c2=O)cc(OC)c1OC | > 100 | > 100

test system: HT29 colon; assay: growth of human tumour cells (NCI), 48 h

Structure (SMILES) | GI50 [µM] | TGI [µM]
CN(C)CC[PH+](c1ccccc1)c1ccccc1.CN(C)CC[PH+](c1ccccc1)c1ccccc1.[Cl-].[Pd+2] | > 100 | > 100
O=C(c1ccccc1)c1cc2ccccc2o1 | 76.1 | > 100
O=C(Nc1ccncc1)C(=O)c1cn(S(=O)(=O)c2ccc(F)cc2)c2ccccc12 | 1.88 | > 100
C=C(C)[C@@H]1CC[C@]2(C)[C@H](CC=C3[C@@H]4CC(C)(C)CC[C@]4(C(N)=O)CC[C@]32C)[C@@]1(C)CCC#N | 3.48 | > 100
O=C(N[C@@H](c1ccc(Cl)c(Cl)c1)C1CNC1)c1ccc2cnccc2c1 | 0.206 | 12.1
CO/N=C(\COc1ccc2c(c1)oc(=O)c1cc(OC)ccc12)c1ccc(OC)cc1 | > 100 | > 100
COc1ccc(NC(=O)/C(Cc2cc(=O)oc3cc(O)ccc23)=N\NC(C)(C)C)c(OC)c1 | – | > 100
O=C1/C(=C/c2ccc3c(c2)OCO3)SC2C=Nc3ccccc3N12 (stereo unspecified) | – | > 100
CCOc1ccc(NC(=O)C(=O)CC(=O)c2c(C)n([O-])c3ccccc3[n+]2=O)cc1 | – | > 100
Cc1cc(Cl)ccc1NC(=O)C(=O)Cc1nc2ccccc2o1 | – | > 100
OCC1OC(c2nc(C3=NCCCN3)cs2)C(O)C1O (stereo unspecified) | – | > 100
CCC(C)COC(=O)c1ccc(N=Cc2ccc(C=Nc3ccc(C(=O)OCC(C)CC)cc3)cc2)cc1 (stereo unspecified) | – | > 100
COc1cc(F)ccc1-c1ncnc(Nc2cccc(CS(C)(=N)=O)c2)n1 (stereo unspecified) | 0.642 | 6.39
Cc1cc(N(CCC#N)CCC#N)ccc1N=Nc1ccc(C(=O)O)cc1 | – | > 100
[Cl][Hg][c]1cc[c]([Hg][Cl])o1 | 2.99 | 9.88
CN(C)CC1CCCC/C1=N/OC(=O)c1ccc(Cl)cc1 (stereo unspecified) | – | > 100
N#CC(C(=O)C(=O)C(C#N)c1ccc(Br)cc1)c1ccc(Br)cc1 (stereo unspecified) | – | 22.8
COc1cccc(C2=NC(C(C)C)CO2)c1 (stereo unspecified) | – | > 100
CCOC(=O)C(=[N+]=[N-])[Si](C)(C)C | – | > 100

Structure (SMILES) | GI50 [µM] | TGI [µM]
O=C(CC1(O)C(=O)N(Cc2ccccc2)c2ccc(F)cc21)c1ccc(C(=O)NCC2CCC3(CC2)OOC2(CCCCC2)OO3)cc1 (stereo unspecified) | 0.362 | 1.28
COc1cc2c3c(n(C)c(=O)c2cc1OC)-c1cc2c(cc1/C3=C\CN)OCO2 | 0.192 | 24.8
COc1ccc(/C=C2/N=C(c3ccccc3)N(c3c(C)n(C)n(-c4ccccc4)c3=O)C2=O)cc1OC | > 100 | > 100
CCCc1nc(NC#N)nc(C(=O)Nc2ccccc2)c1CC | – | > 100
O=C(CCc1n[nH]c(=S)o1)Nc1ccccc1C(F)(F)F | – | > 100
CCn1c2ccccc2c2cc(NC(=O)Nc3ccc([N+](=O)[O-])cc3C)ccc21 | 3.01 | 15.6
Cc1ccc(NC(=O)CCc2cc(C(C)(C)C)nc(=S)[nH]2)cc1C | – | > 100
Cc1[nH]c2ccccc2c1C(=O)/C=C/c1ccccc1O | – | > 100
O=C(Nc1nc(=S)c2c(ncn2CCOC(=O)c2ccccc2)[nH]1)c1ccccc1 | – | > 100
COc1ccc(CC2NCCc3c2[nH]c2ccccc32)cc1 (stereo unspecified) | – | > 100
O=C(CSc1nc2ccccc2nc1-c1ccccc1)Nc1ccc(F)cc1 | 21.5 | 96.5
COc1ccc2c(c1)C(=O)c1c-2c(N2CCN(C(=O)CNCCNCCO)CC2)nc2ccccc12 | 1.61 | 3.05
Cc1ccc(/C=C/C(=O)c2sc(-c3nc(C)c(C(=O)/C=C/c4ccc(C)cc4)s3)nc2C)cc1 | – | > 100
Cn1cc(-c2csc(-c3c[nH]c4ccc(F)cc34)n2)c2cnccc21 | 1.69 | 3.29
O=C1Nc2ccccc2/C1=N\[O-].O=C1Nc2ccccc2/C1=N\[O-].[Cu+2] | > 100 | > 100
CCC[CH2][Sn]([Cl])([CH2]CCC)[CH2]CCC | 0.0396 | 0.143
O=c1ccn([C@H]2CSC[C@@H](CO)C2)c(=O)[nH]1 | – | > 100
COc1cc(-n2cc(-c3ccc(F)cc3)[nH]c2=O)cc(OC)c1OC | > 100 | > 100

test system: A498 renal; assay: growth of human tumour cells (NCI), 48 h

Structure (SMILES) | GI50 [µM] | TGI [µM]
CN(C)CC[PH+](c1ccccc1)c1ccccc1.CN(C)CC[PH+](c1ccccc1)c1ccccc1.[Cl-].[Pd+2] | > 100 | > 100
O=C(c1ccccc1)c1cc2ccccc2o1 | 39.9 | > 100
O=C(Nc1ccncc1)C(=O)c1cn(S(=O)(=O)c2ccc(F)cc2)c2ccccc12 | 6.57 | 63.2
C=C(C)[C@@H]1CC[C@]2(C)[C@H](CC=C3[C@@H]4CC(C)(C)CC[C@]4(C(N)=O)CC[C@]32C)[C@@]1(C)CCC#N | 2.16 | 5.32
O=C(N[C@@H](c1ccc(Cl)c(Cl)c1)C1CNC1)c1ccc2cnccc2c1 | 0.157 | 1.36
CO/N=C(\COc1ccc2c(c1)oc(=O)c1cc(OC)ccc12)c1ccc(OC)cc1 | > 100 | > 100
COc1ccc(NC(=O)/C(Cc2cc(=O)oc3cc(O)ccc23)=N\NC(C)(C)C)c(OC)c1 | – | > 100
O=C1/C(=C/c2ccc3c(c2)OCO3)SC2C=Nc3ccccc3N12 (stereo unspecified) | – | > 100
CCOc1ccc(NC(=O)C(=O)CC(=O)c2c(C)n([O-])c3ccccc3[n+]2=O)cc1 | – | > 100
Cc1cc(Cl)ccc1NC(=O)C(=O)Cc1nc2ccccc2o1 | – | > 100
OCC1OC(c2nc(C3=NCCCN3)cs2)C(O)C1O (stereo unspecified) | – | > 100
CCC(C)COC(=O)c1ccc(N=Cc2ccc(C=Nc3ccc(C(=O)OCC(C)CC)cc3)cc2)cc1 (stereo unspecified) | – | > 100
COc1cc(F)ccc1-c1ncnc(Nc2cccc(CS(C)(=N)=O)c2)n1 (stereo unspecified) | 0.424 | 1.66
Cc1cc(N(CCC#N)CCC#N)ccc1N=Nc1ccc(C(=O)O)cc1 | – | > 100
[Cl][Hg][c]1cc[c]([Hg][Cl])o1 | 20 | 34.2
CN(C)CC1CCCC/C1=N/OC(=O)c1ccc(Cl)cc1 (stereo unspecified) | – | > 100
N#CC(C(=O)C(=O)C(C#N)c1ccc(Br)cc1)c1ccc(Br)cc1 (stereo unspecified) | – | 29.3
COc1cccc(C2=NC(C(C)C)CO2)c1 (stereo unspecified) | – | > 100
CCOC(=O)C(=[N+]=[N-])[Si](C)(C)C | – | > 100

Source: PubChem BioAssay (NCI)
